In patent US6652890B2, “Tea catechins as cancer specific proliferation inhibitors” (Purdue Research Foundation, priority 1999, dated 2003):
“Also recorded” adds a separate entry of the source. Where two headings read alike, the source gives them in different places. Each block holds one molecule with its values, some of them ahead of it.

Experiments:
[1] = target: T1, tNOX activity of intact 4T1 mouse mammary cells (Mus musculus, UniProt Q8R0Z2); assay: Inhibition of tNOX (NADH oxidase) activity of intact 4T1 cells; type: cell-based; conditions: for Inhibition of residual tNOX remaining in the presence of EGCg, EC>90: estimated
T1 construct: endogenous in cells; host or cells: 4T1 mouse mammary carcinoma cells (intact)
T1 sequence (Q8R0Z2 1-598): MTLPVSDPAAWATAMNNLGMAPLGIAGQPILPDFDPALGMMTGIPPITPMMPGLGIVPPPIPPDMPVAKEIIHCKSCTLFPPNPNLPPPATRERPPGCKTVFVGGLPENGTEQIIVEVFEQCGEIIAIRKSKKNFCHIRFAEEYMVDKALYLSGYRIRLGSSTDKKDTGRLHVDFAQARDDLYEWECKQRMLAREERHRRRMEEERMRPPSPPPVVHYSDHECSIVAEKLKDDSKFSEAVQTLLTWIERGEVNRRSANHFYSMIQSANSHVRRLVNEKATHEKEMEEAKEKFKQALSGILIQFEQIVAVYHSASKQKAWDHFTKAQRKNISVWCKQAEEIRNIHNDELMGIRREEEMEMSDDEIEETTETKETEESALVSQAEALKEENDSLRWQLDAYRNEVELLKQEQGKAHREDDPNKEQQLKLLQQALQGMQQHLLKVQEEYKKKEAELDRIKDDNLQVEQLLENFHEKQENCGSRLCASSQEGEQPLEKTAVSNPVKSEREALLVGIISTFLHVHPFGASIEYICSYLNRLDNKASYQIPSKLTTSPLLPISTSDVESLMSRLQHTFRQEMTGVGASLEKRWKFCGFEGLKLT
Description: A mouse mammary tumor subpopulation line 4T1 arising from a BALB/cf C3H mouse was grown in DME-10, Dulbecco's modified Eagle's medium supplemented with 5% fetal calf serum, 5% newborn calf serum, 1 mM mixed non-essential amino acids, 2 mM L-glutamine, penicillin (100 units/ml), and streptomycin (100 μg/ml) (Miller et al., 1987, Brit. J. Can. 56:561-569 and Miller et al., 1990, Invasion Metastasis 10:101-112).
NADH oxidase activity was determined as the disappearance of NADH measured at 340 nm in a reaction mixture containing 25 mM Tris-Mes buffer (pH 7.2), 1 mM KCN, and 150 μM NADH at 37° C. Activity was measured using a Hitachi U3210 spectrophotometer with stirring and continuous recording over two intervals of 5 min each. A millimolar extinction coefficient of 6.22 was used to determine specific activity.
NADH oxidase activity was determined as the disappearance of NADH measured at 340 nm in a reaction mixture containing 25 mM Tris-Mes buffer (pH 7.2), 1 mM KCN, and 150 μM NADH at 37° C. Activity was measured at 340 nm with reference at 430 nm using an SLM Aminco DW-2000 spectrophotometer (Milton Roy, Rochester, N.Y.) in the dual beam mode of operation with stirring and continuous recording over two intervals of 5 min each. A millimolar extinction coefficient of 6.22 was used to determine specific activity.

[2] = test system: 4T1 metastatic mouse mammary cancer cells; assay: Killing of 4T1 metastatic mouse mammary cancer cells in culture; type: cell-based; conditions: EGCg 10^−7 M, EC 10^−4 M, alone or combined
4T1 mouse mammary cancer = assay: Preliminary animal study, Balb/c mice with 4T1 mouse mammary cancer; type: in vivo; conditions: treated for 5 days, 100 μl/day; glaucarubolone 1 mg, EGCg + EC 0.2 + 1.2 mg per animal
[3] = Inhibition of residual tNOX remaining in the presence of EGCg, EC50, estimated, EGCg given as 0.1 mM (title), 10^−6 M (head), 10^−7 M
[4] = EGCg given as 0.1 mM (title), 10^−6 M (head), 10^−7 M

EC50 [1, 3]: 500 nM
Inhibition of residual tNOX remaining in the presence of EGCg, EC>90 [1, 4]: 10^−6 M
SMILES: O=C(O[C@@H]1Cc2c(O)cc(O)cc2O[C@@H]1c1ccc(O)c(O)c1)c1cc(O)c(O)c(O)c1 [ECG, (−) - epicatechin gallate]

Effect on NOX activity ([1]; in the presence of 10^−7 M EGCg, listed as Catechin): largely without effect
Effect on NOX activity ([1]; in the presence of 10^−7 M EGCg, listed as ±catechin): little affected
SMILES: Oc1cc(O)c2c(c1)OC(c1ccc(O)c(O)c1)C(O)C2 (racemic) [C, (±) - catechin]

EC50 for tNOX inhibition by (−)-epicatechin ([1]; EGCg concentration 0 M, EGCg alone): No effect
EC50 for tNOX inhibition by (−)-epicatechin ([1]; EGCg concentration 0 M, supplied as Tegreen™): No effect
EC50 ([1]; EGCg concentration 10^−4 M, EGCg alone, read-out: EC50 for tNOX inhibition by (−)-epicatechin): 500 ± 400 nM
EC50 ([1]; EGCg concentration 10^−4 M, supplied as Tegreen™, read-out: EC50 for tNOX inhibition by (−)-epicatechin): 300 ± 200 nM
EC50 ([1]; EGCg concentration 10^−5 M, EGCg alone, read-out: EC50 for tNOX inhibition by (−)-epicatechin): 700 ± 300 nM
EC50 ([1]; EGCg concentration 10^−6 M, EGCg alone, read-out: EC50 for tNOX inhibition by (−)-epicatechin): 150 ± 50 nM
EC50 ([1]; EGCg concentration 10^−6 M, supplied as Tegreen™, read-out: EC50 for tNOX inhibition by (−)-epicatechin): 500 ± 400 nM
EC50 ([1]; EGCg concentration 10^−7 M, EGCg alone, read-out: EC50 for tNOX inhibition by (−)-epicatechin): 200 ± 100 nM
EC50 for tNOX inhibition by (−)-epicatechin ([1]; EGCg concentration 10^−7 M, supplied as Tegreen™): No effect
EC50 for tNOX inhibition by (−)-epicatechin ([1]; EGCg concentration 10^−8 M, EGCg alone): No effect
EC50 for tNOX inhibition by (−)-epicatechin ([1]; EGCg concentration 10^−8 M, supplied as Tegreen™): No effect
EC50 ([1]; in the presence of 10^−7 M EGCg, read-out: EC50 of EC): ~200 nM
SMILES: Oc1cc(O)c2c(c1)O[C@H](c1ccc(O)c(O)c1)[C@H](O)C2 [EC, (−) - epicatechin]
Increase in cell number cm^−2 over 72 h · 10^2 [2]: 560 cm^−2 · 10^2

SMILES: Oc1cc(O)c2c(c1)O[C@H](c1cc(O)c(O)c(O)c1)[C@H](O)C2 [EGC, (−) - epigallocatechin]
EC50 [1, 3]: 1000 nM
Inhibition of residual tNOX remaining in the presence of EGCg, EC>90 [1, 4]: 10^−5 M

Inhibition of residual tNOX remaining in the presence of EGCg, EC>90 [1, 4]: Not reached due
SMILES: O=C(O[C@@H]1Cc2c(O)cc(O)cc2O[C@H]1c1cc(O)c(O)c(O)c1)c1cc(O)c(O)c(O)c1 [GCG, gallocatechin gallate]
Effect on NOX activity ([1]; in the presence of 10^−7 M EGCg): less effective; also recorded: less affected

SMILES: CC1=CC(=O)[C@@H](O)[C@]2(C)[C@H]3[C@@]4(O)OC[C@]35[C@H]([C@@H](C)[C@H]4O)[C@@H](O)C(=O)O[C@@H]5C[C@@H]12 [Glaucarubolone, glaucarubolone]
Tumor wt (4T1 mouse mammary cancer): 1.5 ± 0.1 g
